The values below are quoted from earlier work in patent publication US20080213374A1, “NANOPARTICULATE SORAFENIB FORMULATIONS” (Elan Pharma International Limited, priority 2006, published 2008).

On to `CNC(=O)c1cc(Oc2ccc(NC(=O)Nc3ccc(Cl)c(C(F)(F)F)c3)cc2)ccn1` [Sorafenib], for which the solubility in water entry is “practically insoluble”.
For `CNC(=O)c1cc(Oc2ccc(NC(=O)Nc3ccc(Cl)c(C(F)(F)F)c3)cc2)ccn1.Cc1ccc(S(=O)(=O)O)cc1` [Sorafenib tosylate, 4-(4-{3-[4-Chloro-3-(trifluoromethyl)phenyl]ureido}phenoxy)-N2-methylpyridine-2-carboxamide 4-methylbenzenesulfonate], the solubility in water result is reported as “practically insoluble”. The “solubility in PEG 400” value (PEG 400) is “soluble”. Moreover, the “solubility in aqueous media” value (aqueous media) is given as “practically insoluble”. Besides, the solubility in ethanol result (ethanol) is given as “slightly soluble”.
